Experimental data as given in the NIST ThermoML archive (doi:10.1016/j.tca.2015.08.013).
Numbers after ± are expanded uncertainties.

Conditions: for surface tension liquid-gas: Drop volume; for mass density / kinematic viscosity / speed of sound / vapor or sublimation pressure: Liquid; for mass density: Vibrating tube method; for kinematic viscosity / speed of sound: 101.33 kPa; for kinematic viscosity: Capillary tube (Ostwald / Ubbelohde) method; for speed of sound: Sing-around technique in a fixed-path interferometer; for vapor or sublimation pressure: Ebulliometric method (Recirculating still)

Work on `Cc1ccc(C)o1` [2,5-dimethylfuran] yielded a surface tension liquid-gas (278.15 K) of 27.5 ± 0.24 mN/m, a mass density (278.15 K, 99 kPa) of 917.53 ± 0.23 kg/m3 and a kinematic viscosity (278.15 K) of 6.7e-07 ± 1.4e-08 m2/s. For the same compound, the speed of sound (278.15 K) was 1281.9 ± 1.5 m/s, the surface tension liquid-gas (280.65 K) was 27.19 ± 0.24 mN/m and the mass density (280.65 K, 99 kPa) was 914.899 ± 0.23 kg/m3. The kinematic viscosity (280.65 K) was 6.5e-07 ± 1.4e-08 m2/s, the speed of sound (280.65 K) was 1271.1 ± 1.5 m/s and the surface tension liquid-gas (283.15 K) was 26.86 ± 0.24 mN/m. It also gave a mass density (283.15 K, 99 kPa) of 912.247 ± 0.23 kg/m3, a mass density (283.15 K, 100 kPa) of 912.25 ± 0.29 kg/m3 and a kinematic viscosity (283.15 K) of 6.34e-07 ± 1.4e-08 m2/s. The speed of sound (283.15 K) was 1260.2 ± 1.5 m/s, the mass density (283.15 K, 2500 kPa) was 914.37 ± 0.3 kg/m3 and the mass density (283.15 K, 5000 kPa) was 916.47 ± 0.3 kg/m3. It also gave a mass density (283.15 K, 7500 kPa) of 918.52 ± 0.31 kg/m3, a mass density (283.15 K, 10000 kPa) of 920.53 ± 0.31 kg/m3 and a mass density (283.15 K, 20000 kPa) of 928.2 ± 0.33 kg/m3. The mass density (283.15 K, 30000 kPa) was 935.24 ± 0.34 kg/m3, the mass density (283.15 K, 40000 kPa) was 941.89 ± 0.35 kg/m3 and the mass density (283.15 K, 50000 kPa) was 948.12 ± 0.36 kg/m3. For the same compound, the mass density (283.15 K, 60000 kPa) was 953.98 ± 0.37 kg/m3, the “vapor or sublimation pressure” value (283.16 K) was 3.015 ± 0.2 kPa and the surface tension liquid-gas (285.65 K) was 26.57 ± 0.23 mN/m. The mass density (285.65 K, 99 kPa) was 909.614 ± 0.23 kg/m3, the kinematic viscosity (285.65 K) was 6.12e-07 ± 1.3e-08 m2/s and the speed of sound (285.65 K) was 1249.2 ± 1.5 m/s. It also gave a surface tension liquid-gas (288.15 K) of 26.22 ± 0.23 mN/m, a mass density (288.15 K, 99 kPa) of 906.988 ± 0.23 kg/m3 and a mass density (288.15 K, 100 kPa) of 906.99 ± 0.29 kg/m3. The kinematic viscosity (288.15 K) was 5.95e-07 ± 1.3e-08 m2/s, the speed of sound (288.15 K) was 1238.3 ± 1.5 m/s and the mass density (288.15 K, 2500 kPa) was 909.13 ± 0.3 kg/m3. The mass density (288.15 K, 5000 kPa) was 911.29 ± 0.3 kg/m3, the mass density (288.15 K, 7500 kPa) was 913.42 ± 0.31 kg/m3 and the mass density (288.15 K, 10000 kPa) was 915.49 ± 0.31 kg/m3. The mass density (288.15 K, 20000 kPa) was 923.34 ± 0.33 kg/m3, the mass density (288.15 K, 30000 kPa) was 930.62 ± 0.35 kg/m3 and the mass density (288.15 K, 40000 kPa) was 937.41 ± 0.36 kg/m3. For the same compound, the mass density (288.15 K, 50000 kPa) was 943.72 ± 0.37 kg/m3, the mass density (288.15 K, 60000 kPa) was 949.78 ± 0.37 kg/m3 and the “vapor or sublimation pressure” value (288.36 K) was 4.037 ± 0.2 kPa. It also gave a surface tension liquid-gas (290.65 K) of 25.91 ± 0.23 mN/m, a mass density (290.65 K, 99 kPa) of 904.299 ± 0.23 kg/m3 and a kinematic viscosity (290.65 K) of 5.79e-07 ± 1.2e-08 m2/s. The speed of sound (290.65 K) was 1227.5 ± 1.5 m/s, the “vapor or sublimation pressure” value (290.65 K) was 4.575 ± 0.2 kPa and the surface tension liquid-gas (293.15 K) was 25.54 ± 0.23 mN/m. For the same compound, the mass density (293.15 K, 99 kPa) was 901.636 ± 0.23 kg/m3, the mass density (293.15 K, 100 kPa) was 901.64 ± 0.29 kg/m3 and the kinematic viscosity (293.15 K) was 5.63e-07 ± 1.2e-08 m2/s. For the same compound, the speed of sound (293.15 K) was 1216.5 ± 1.5 m/s, the mass density (293.15 K, 2500 kPa) was 903.82 ± 0.3 kg/m3 and the mass density (293.15 K, 5000 kPa) was 906.07 ± 0.3 kg/m3. The mass density (293.15 K, 7500 kPa) was 908.26 ± 0.31 kg/m3, the mass density (293.15 K, 10000 kPa) was 910.4 ± 0.31 kg/m3 and the mass density (293.15 K, 20000 kPa) was 918.5 ± 0.33 kg/m3. The mass density (293.15 K, 30000 kPa) was 925.97 ± 0.35 kg/m3, the mass density (293.15 K, 40000 kPa) was 932.94 ± 0.36 kg/m3 and the mass density (293.15 K, 50000 kPa) was 939.57 ± 0.37 kg/m3. The mass density (293.15 K, 60000 kPa) was 945.6 ± 0.38 kg/m3, the “vapor or sublimation pressure” value (293.16 K) was 5.195 ± 0.2 kPa and the surface tension liquid-gas (295.65 K) was 25.3 ± 0.23 mN/m. For the same compound, the mass density (295.65 K, 99 kPa) was 898.951 ± 0.23 kg/m3, the kinematic viscosity (295.65 K) was 5.48e-07 ± 1.2e-08 m2/s and the speed of sound (295.65 K) was 1206.3 ± 1.5 m/s. It also gave a surface tension liquid-gas (298.15 K) of 25 ± 0.23 mN/m, a mass density (298.15 K, 99 kPa) of 896.285 ± 0.23 kg/m3 and a mass density (298.15 K, 100 kPa) of 896.29 ± 0.29 kg/m3. It also gave a kinematic viscosity (298.15 K) of 5.34e-07 ± 1.2e-08 m2/s, a speed of sound (298.15 K) of 1194.9 ± 1.5 m/s and a mass density (298.15 K, 2500 kPa) of 898.6 ± 0.3 kg/m3. It also gave a mass density (298.15 K, 5000 kPa) of 900.94 ± 0.3 kg/m3, a mass density (298.15 K, 7500 kPa) of 903.16 ± 0.31 kg/m3 and a mass density (298.15 K, 10000 kPa) of 905.39 ± 0.32 kg/m3. It also gave a mass density (298.15 K, 20000 kPa) of 913.73 ± 0.34 kg/m3, a mass density (298.15 K, 30000 kPa) of 921.4 ± 0.35 kg/m3 and a mass density (298.15 K, 40000 kPa) of 928.44 ± 0.37 kg/m3. The mass density (298.15 K, 50000 kPa) was 935.19 ± 0.38 kg/m3, the mass density (298.15 K, 60000 kPa) was 941.44 ± 0.39 kg/m3 and the “vapor or sublimation pressure” value (298.25 K) was 6.75 ± 0.2 kPa. The surface tension liquid-gas (300.65 K) was 24.67 ± 0.22 mN/m, the mass density (300.65 K, 99 kPa) was 893.569 ± 0.23 kg/m3 and the kinematic viscosity (300.65 K) was 5.2e-07 ± 1.1e-08 m2/s. For the same compound, the speed of sound (300.65 K) was 1185 ± 1.5 m/s, the “vapor or sublimation pressure” value (302.52 K) was 8.37 ± 0.2 kPa and the surface tension liquid-gas (303.15 K) was 24.33 ± 0.22 mN/m. For the same compound, the mass density (303.15 K, 99 kPa) was 890.898 ± 0.23 kg/m3, the mass density (303.15 K, 100 kPa) was 890.9 ± 0.29 kg/m3 and the kinematic viscosity (303.15 K) was 5.04e-07 ± 1.1e-08 m2/s. For the same compound, the speed of sound (303.15 K) was 1173.3 ± 1.5 m/s, the mass density (303.15 K, 2500 kPa) was 893.25 ± 0.3 kg/m3 and the mass density (303.15 K, 5000 kPa) was 895.65 ± 0.3 kg/m3. It also gave a mass density (303.15 K, 7500 kPa) of 897.97 ± 0.31 kg/m3, a mass density (303.15 K, 10000 kPa) of 900.25 ± 0.32 kg/m3 and a mass density (303.15 K, 20000 kPa) of 908.83 ± 0.34 kg/m3. It also gave a mass density (303.15 K, 30000 kPa) of 916.74 ± 0.36 kg/m3, a mass density (303.15 K, 40000 kPa) of 924.06 ± 0.37 kg/m3 and a mass density (303.15 K, 50000 kPa) of 930.89 ± 0.39 kg/m3. The mass density (303.15 K, 60000 kPa) was 937.27 ± 0.4 kg/m3, the surface tension liquid-gas (305.65 K) was 24.02 ± 0.22 mN/m and the mass density (305.65 K, 99 kPa) was 888.151 ± 0.23 kg/m3. For the same compound, the kinematic viscosity (305.65 K) was 4.95e-07 ± 1.1e-08 m2/s, the speed of sound (305.65 K) was 1163.8 ± 1.5 m/s and the surface tension liquid-gas (308.15 K) was 23.7 ± 0.22 mN/m. It also gave a mass density (308.15 K, 99 kPa) of 885.447 ± 0.23 kg/m3, a mass density (308.15 K, 100 kPa) of 885.45 ± 0.29 kg/m3 and a kinematic viscosity (308.15 K) of 4.83e-07 ± 1e-08 m2/s. The speed of sound (308.15 K) was 1151.9 ± 1.5 m/s, the mass density (308.15 K, 2500 kPa) was 887.9 ± 0.3 kg/m3 and the mass density (308.15 K, 5000 kPa) was 890.36 ± 0.31 kg/m3. For the same compound, the mass density (308.15 K, 7500 kPa) was 892.78 ± 0.31 kg/m3, the mass density (308.15 K, 10000 kPa) was 895.14 ± 0.32 kg/m3 and the mass density (308.15 K, 20000 kPa) was 903.98 ± 0.34 kg/m3. It also gave a mass density (308.15 K, 30000 kPa) of 912.1 ± 0.36 kg/m3, a mass density (308.15 K, 40000 kPa) of 919.56 ± 0.38 kg/m3 and a mass density (308.15 K, 50000 kPa) of 926.54 ± 0.39 kg/m3. For the same compound, the mass density (308.15 K, 60000 kPa) was 933.08 ± 0.4 kg/m3, the “vapor or sublimation pressure” value (309.17 K) was 11.59 ± 0.2 kPa and the surface tension liquid-gas (310.65 K) was 23.34 ± 0.22 mN/m. For the same compound, the mass density (310.65 K, 99 kPa) was 882.693 ± 0.23 kg/m3, the kinematic viscosity (310.65 K) was 4.71e-07 ± 1e-08 m2/s and the speed of sound (310.65 K) was 1142.5 ± 1.5 m/s. The surface tension liquid-gas (313.15 K) was 23.01 ± 0.21 mN/m and the mass density (313.15 K, 99 kPa) was 879.927 ± 0.23 kg/m3.
